The assay has as its target T1, Human HPK1, catalytic domain (Homo sapiens, UniProt Q92918).
T1 construct: purchased Carna
T1 sequence (Q92918 1-346): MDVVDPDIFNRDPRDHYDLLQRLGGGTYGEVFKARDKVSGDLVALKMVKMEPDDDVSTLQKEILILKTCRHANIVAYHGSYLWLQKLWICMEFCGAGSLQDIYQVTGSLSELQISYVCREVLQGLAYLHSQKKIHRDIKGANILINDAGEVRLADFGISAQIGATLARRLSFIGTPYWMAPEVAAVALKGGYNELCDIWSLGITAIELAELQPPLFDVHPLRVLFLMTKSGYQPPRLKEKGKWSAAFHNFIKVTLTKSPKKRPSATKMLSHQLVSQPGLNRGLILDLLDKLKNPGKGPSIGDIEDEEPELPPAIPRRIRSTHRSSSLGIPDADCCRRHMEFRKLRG
The assay can be described thus: HPK1-SLP76 TR-FRET assay. Particulars: 75 pM HPK1, 10 uM ATP, 10 nM SLP76, 30 min compound pre-incubation. It is filed as biochemical.

Compound `COc1cc2c(cc1Nc1ncc(C(N)=O)c(Nc3ccccc3Br)n1)CN(C(=O)C(C)C)CC2` [Example 12-3, 4-[(2-bromophenyl)amino]-2-{[6-methoxy-2-(2-methylpropanoyl)-1,2,3,4-tetrahydroisoquinolin-7-yl]amino}pyrimidine-5-carboxamide] registered an IC50 of 598 nM.
Then `Cc1cccc(F)c1Nc1nc(Nc2c(C)n[nH]c2C)ncc1C(N)=O` [Example 4-34, 2-[(3,5-dimethyl-1H-pyrazol-4-yl)amino]-4-[(2-fluoro-6-methylphenyl)amino] pyrimidine-5-carboxamide], with 65.1 nM; and `COc1cc2c(cc1Nc1ncc(C(N)=O)c(Nc3c(F)ccc(C)c3Cl)n1)CN(C)CC2` [Example 4-16], with 0.1 nM.
With `COc1nn(C)cc1Nc1ncc(C(N)=O)c(Nc2cccc3c2CCNC3=O)n1` [Example 7-47, 2-[(3-methoxy-1-methyl-1H-pyrazol-4-yl)amino]-4-[(1-oxo-1,2,3,4-tetrahydroisoquinolin-5-yl)amino]pyrimidine-5-carboxamide], it took 3.57 nM to reach half-maximal inhibition (IC50).
The same measure for `COc1cc2c(cc1Nc1ncc(C(N)=O)c(N[C@H]3CCc4ccccc43)n1)CN(C)CC2` [Example 26-37, 4-{[(1S)-2,3-dihydro-1H-inden-1-yl]amino}-2-[(6-methoxy-2-methyl-1,2,3,4-tetrahydroisoquinolin-7-yl)amino]pyrimidine-5-carboxamide]: 0.38 nM; for `COc1cc2c(cc1Nc1ncc(C(N)=O)c(N[C@H]3CC[C@H](C)CC3)n1)CN(C)CC2` [Example 26-29, 2-[(6-methoxy-2-methyl-1,2,3,4-tetrahydroisoquinolin-7-yl)amino]-4-[(trans-4-methylcyclohexyl)amino]pyrimidine-5-carboxamide]: 1.43 nM.
The same measure for `COc1cc2c(cc1Nc1ncc(C(N)=O)c(Nc3cccc(CN)c3)n1)CN(C)CC2` [Example 2-2, 4-{[3-(aminomethyl)phenyl]-amino}-2-[(6-methoxy-2-methyl-1,2,3,4-tetrahydroisoquinolin-7-yl)amino]pyrimidine-5-carboxamide]: 0.34 nM; for `C[C@@H](Nc1ncc(C(N)=O)c(Nc2cccc3c2CCNC3=O)n1)c1ccc(F)cc1` [Example 25-8, 2-{[(1R)-1-(4-fluorophenyl)ethyl]amino}-4-[(1-oxo-1,2,3,4-tetrahydroisoquinolin-5-yl)amino]pyrimidine-5-carboxamide]: 176 nM.
Compound `COc1cc2c(cc1Nc1ncc(C(N)=O)c(Nc3cc(F)ccc3F)n1)CN(C)CC2` [Example 4-11, 4-[(2,5-difluorophenyl)amino]-2-[(6-methoxy-2-methyl-1,2,3,4-tetrahydroisoquinolin-7-yl)amino]pyrimidine-5-carboxamide] registered a concentration for half-maximal inhibition (IC50) of 0.55 nM.
The same measure for `COc1cc2c(cc1Nc1ncc(C(N)=O)c(NCc3cccc(F)c3F)n1)CN(C)CC2` [Example 26-9, 4-{[(2,3-difluorophenyl)methyl]amino}-2-[(6-methoxy-2-methyl-1,2,3,4-tetrahydroisoquinolin-7-yl)amino]pyrimidine-5-carboxamide]: 0.95 nM.
Then `NC(=O)c1cnc(Nc2cccc3sccc23)nc1Nc1cccc2c1CCNC2=O` [Example 25-43, 2-[(1-benzothiophen-4-yl)amino]-4-[(1-oxo-1,2,3,4-tetrahydroisoquinolin-5-yl)amino]pyrimidine-5-carboxamide], with 77.8 nM; and `CN1CCc2cc(F)c(Nc3ncc(C(N)=O)c(Nc4cccc5c4OC(C)(C)C5)n3)cc2C1` [Example 4-32, 4-[(2,2-dimethyl-2,3-dihydro-1-benzofuran-7-yl)amino]-2-[(6-fluoro-2-methyl-1,2,3,4-tetrahydroisoquinolin-7-yl)amino]pyrimidine-5-carboxamide], with 1.13 nM; and `COc1cc2c(cc1Nc1ncc(C(N)=O)c(N[C@H](CO)c3ccccc3)n1)CN(C)CC2` [Example 26-43, 4-{[(1S)-2-hydroxy-1-phenylethyl]amino}-2-[(6-methoxy-2-methyl-1,2,3,4-tetrahydroisoquinolin-7-yl)amino]pyrimidine-5-carboxamide], with 6.59 nM.
Then `Cc1c(Cl)cccc1Nc1ncc(C(N)=O)c(Nc2cccc3c2CCNC3=O)n1` [Example 25-26, 2-[(3-chloro-2-methylphenyl)amino]-4-[(1-oxo-1,2,3,4-tetrahydroisoquinolin-5-yl)amino]pyrimidine-5-carboxamide], with 203 nM; and `COc1cc2c(cc1Nc1ncc(C(N)=O)c(Nc3cccc4c3CCN(C(C)=O)C4)n1)CN(C)CC2` [Example 15-1, 4-[(2-acetyl-1,2,3,4-tetrahydroisoquinolin-5-yl)amino]-2-[(6-methoxy-2-methyl-1,2,3,4-tetrahydroisoquinolin-7-yl)amino]pyrimidine-5-carboxamide], with 0.48 nM; and `COc1cc2c(cc1Nc1ncc(C(N)=O)c(N[C@@H]3c4ccccc4C[C@H]3O)n1)CN(C)CC2` [Example 26-65, 4-{[(1R,2R)-2-hydroxy-2,3-dihydro-1H-inden-1-yl]amino}-2-[(6-methoxy-2-methyl-1,2,3,4-tetrahydroisoquinolin-7-yl)amino]pyrimidine-5-carboxamide], with 17.8 nM.
Compound `CN1CCc2cc(F)c(Nc3ncc(C(N)=O)c(Nc4ccccc4CO)n3)cc2C1` [Example 7-42, 2-[(6-fluoro-2-methyl-1,2,3,4-tetrahydroisoquinolin-7-yl)amino]-4-{[2-(hydroxymethyl)phenyl]amino}py-rimidine-5-carboxamide] had an IC50 of 0.12 nM.
`CCS(=O)(=O)N1CCc2cc(OC)c(Nc3ncc(C(N)=O)c(Nc4ccccc4Br)n3)cc2C1` [Example 10-6, 4-[(2-bromophenyl)amino]-2-{[2-(ethylsulfonyl)-6-methoxy-1,2,3,4-tetrahydroisoquinolin-7-yl]amino}pyrimidine-5-carboxamide] displayed a concentration for half-maximal inhibition (IC50) of 41.6 nM.
`NC(=O)c1cnc(NC2(c3ccccc3F)CC2)nc1Nc1cccc2c1CCNC2=O` [Example 25-23, 2-{[1-(2-fluorophenyl)cyclopropyl]amino}-4-[(1-oxo-1,2,3,4-tetrahydroisoquinolin-5-yl)amino]pyrimidine-5-carboxamide] gave an IC50 of 346 nM.
The same measure for `COc1cc2c(cc1Nc1ncc(C(N)=O)c(Nc3ccccc3Br)n1)CN(C1COC1)CC2` [Example 9-2, 4-[(2-bromophenyl)amino]-2-{[6-methoxy-2-(oxetan-3-yl)-1,2,3,4-tetrahydroisoquinolin-7-yl]amino}pyrimidine-5-carboxamide]: 1.42 nM.
The same measure for `Cn1cc(Nc2ncc(C(N)=O)c(Nc3cccc4c3CCNC4)n2)cn1` [Example 7-12, 2-[(1-methyl-1H-pyrazol-4-yl)amino]-4-[(1,2,3,4-tetrahydroisoquinolin-5-yl)amino]pyrimidine-5-carboxamide]: 1.86 nM; for `COc1cc2c(cc1Nc1ncc(C(N)=O)c(NC3C[C@@H]4CC[C@H]3C4)n1)CN(C)CC2` (stereo partly drawn) [Example 26-14, 4-{[(1S,4R)-bicyclo[2.2.1]heptan-2-yl]amino}-2-[(6-methoxy-2-methyl-1,2,3,4-tetrahydroisoquinolin-7-yl)amino]pyrimidine-5-carboxamide]: 0.14 nM.
The same measure for `COc1cc2c3cc1Nc1ncc(C(N)=O)c(n1)Nc1c(F)cc(cc1F)CCCCCN(CC2)C3` [Example 19-1, 52,56-Difluoro-16-methoxy-11,12,13,14-tetrahydro-2,4-diaza-1(7,2)-isoquinolina-3(2,4)-pyrimidina-5(1,4)-benzenacyclodecaphane-35-carboxamide]: 3.01 nM.
In turn, `COc1cc2c(cc1Nc1ncc(C(N)=O)c(Nc3c(F)cccc3C3CCOCC3)n1)CN(C)CC2` [Example 13-12, 4-{[2-fluoro-6-(oxan-4-yl)phenyl]amino}-2-[(6-methoxy-2-methyl-1,2,3,4-tetrahydroisoquinolin-7-yl)amino]pyrimidine-5-carboxamide] had an IC50 of 0.12 nM.
`C#C[C@H]1CC[C@@H](Nc2nc(Nc3cc4c(cc3OC)CCN(C)C4)ncc2C(N)=O)CC1` [Example 26-39, 4-[(cis-4-ethynylcyclohexyl)amino]-2-[(6-methoxy-2-methyl-1,2,3,4-tetrahydroisoquinolin-7-yl)amino]pyrimidine-5-carboxamide] yielded an IC50 of 0.34 nM.
The same measure for `COc1cc2c(cc1Nc1ncc(C(N)=O)c(Nc3cccc4nnc(C)cc34)n1)CN(C)CC2` [Example 7-6, 2-[(6-methoxy-2-methyl-1,2,3,4-tetrahydroisoquinolin-7-yl)amino]-4-[(3-methylcinnolin-5-yl)amino]pyrimidine-5-carboxamide]: 70.5 nM; for `COc1cc2c(cc1Nc1ncc(C(N)=O)c(NCc3ccccc3O)n1)CN(C)CC2` [Example 26-57, 4-{[(2-hydroxyphenyl)methyl]amino}-2-[(6-methoxy-2-methyl-1,2,3,4-tetrahydroisoquinolin-7-yl)amino]pyrimidine-5-carboxamide]: 3.19 nM; for `COc1cc2c(cc1Nc1ncc(C(N)=O)c(Nc3c(C)nn(C)c3C)n1)CN(C)CC2` [Example 7-80, 2-((6-methoxy-2-methyl-1,2,3,4-tetrahydroisoquinolin-7-yl)amino)-4-((1,3,5-trimethyl-1H-pyrazol-4-yl)amino)pyrimidine-5-carboxamide]: 0.91 nM.
Then `NC(=O)c1cnc(Nc2ccc(OC(F)F)c(Cl)c2)nc1Nc1cccc2c1CCNC2=O` [Example 25-21, 2-{[3-chloro-4-(difluoromethoxy)phenyl]amino}-4-[(1-oxo-1,2,3,4-tetrahydroisoquinolin-5-yl)amino]pyrimidine-5-carboxamide], with 45 nM.
